The values that follow come from patent US20260297129A1, “PEPTIDES AS SELECTIVE IL-23 RECEPTOR INHIBITORS” (SANOFI, priority 2023, published 2026).

A short description of data set [1]: Solubility of peptide compounds in buffer formulations (Table 5). To be noted: target 1 mg/ml. Type of data set: physicochemical. In short, it runs like this:
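Peptide solids, dried from DMSO stock, were taken up at 1 mg/mL in 50 mM HCl pH 1.2, or 50 mM phosphate pH 6.5 or pH 7.4. After 2 h gentle agitation and filtration (0.45 μm), solubility was determined by UHPLC-UV peak area against a DMSO standard of known concentration.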

Data set [2] is described as follows: Chemical stability (relative purity loss) of peptide compounds in buffer formulations (Table 6). Type of data set: physicochemical. To be noted: 2° C. and 37° C. In short, it runs like this: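 Compounds at 0.5 mg/mL in 50 mM HCl pH 1.2, 50 mM phosphate pH 6.5 or pH 7.4, each with acetonitrile (3:1), stored 24 hours at 2° C and 37° C. Purity measured by UHPLC-UV before and after. Stability expressed as relative purity loss.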

The test system of data set [3] is IL-23 induced STAT3 signaling (IL-23 receptor) in HEK-Blue IL-23 cells. In words: Inhibition of IL-23 induced STAT3 signaling in HEK-Blue IL-23 cells, SEAP reporter (Table 9). The data set is classed as cell-based. To be noted: human IL23 0.25 ng/ml, overnight, read-out: Inhibition of IL-23 induced pSTAT3 (IC50 nM). In short, it runs like this: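 HEK-Blue IL-23 reporter cells (10,000/well) pre-incubated 60 min at 37 °C with serially diluted peptides, then stimulated overnight with human IL-23 at 0.25 ng/ml final. SEAP in supernatant read by QUANTI-Blue, 45 min room temperature, OD 620–655 nm; dose-response curve fitting.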

Data set [4] can be described thus: Protease stability in simulated gastric fluids (FaSSGF) (Table 7). Type of data set: in vitro ADME. To be noted: fassgf with pepsin, 60 min, 37° C., read-out: Remaining percentage of peptide compound, FaSSGF 60 (min). The method in brief: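 Peptides at 1 μM final were incubated at 37 °C in simulated gastric fluid with pepsin (320 mg per 100 mL SGF concentrate). Samples were quenched with ethanol (0.1% HCOOH) at 0, 60, 120 and 240 min and analysed by LC-MS/MS. Percent remaining is the peak area relative to T0 (100%).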

Setting [5] is: Buffer pH 1.1 (head; method: 50 mM HCl pH 1.2), 2 h agitation, read-out: Solubility, Buffer pH 1.1.
Where [6] appears, read: aqueous buffer, 50 mM phosphate buffer pH 6.5, 2 h agitation, read-out: Solubility, Buffer pH 6.5.
The mark [7] stands for this setting: aqueous buffer, 50 mM phosphate buffer pH 7.4, 2 h agitation, read-out: Solubility, Buffer pH 7.4.
The mark [8] stands for this setting: 50 mM phosphate buffer pH 6.5 + acetonitrile (3:1), read-out: Chemical stability (relative purity loss), Buffer pH 6.5.
Setting [9] is: 50 mM phosphate buffer pH 7.4 + acetonitrile (3:1), read-out: Chemical stability (relative purity loss), Buffer pH 7.4.
Where [10] appears, read: 50 mm hcl + acetonitrile, Buffer pH 1.1 (head; method: 50 mM HCl pH 1.2 + acetonitrile 3:1), read-out: Chemical stability (relative purity loss), Buffer pH 1.1.

Converted amounts (≈) assume the structure as drawn. Read-outs that look alike come from different tables or passages of the source. Bridge positions count the residues as written; N and C are the ends. Square brackets hold non-standard residues; d marks the D form. Peptide text beside a SMILES is read from it. * marks the point of attachment. Trp(7-Me) = Cc1cccc2c(C[C@H](N)C(=O)O)c[nH]c12; 2Nal = N[C@@H](Cc1ccc2ccccc2c1)C(=O)O; C12 diacid = O=C(O)CCCCCCCCCCC(=O)*; 3Pal = N[C@@H](Cc1cccnc1)C(=O)O; Aun = NCCCCCCCCCCC(=O)O; Thp = NC1(C(=O)O)CCOCC1; Me2NCH2CH2 = CN(C)CC*; Aib = CC(C)(N)C(=O)O; Aoc = NCCCCCCCC(=O)O; Sar = CNCC(=O)O

For the compound `Cc1cccc2c(C[C@@H]3NC(=O)CCCCCCCCCCNC(=O)CC[C@@H](C(=O)N[C@@H](CC(N)=O)C(=O)N[C@@H](Cc4cccnc4)C(=O)N(C)CC(N)=O)NC(=O)C(C)(C)NC(=O)[C@H](Cc4ccc5ccccc5c4)NC(=O)[C@H](Cc4ccc(OCCN(C)C)cc4)NC(=O)C4(CCOCC4)NC(=O)[C@H](CC(C)C)NC3=O)c[nH]c12` [compound 7] ([Aun][Trp(7-Me)]L[Thp]Y(Me2NCH2CH2)[2Nal][Aib]EN[3Pal][Sar]-NH2; lactam N-8), the figures for the solubility at 2 h in data set [1] (setting [5]), in data set [1] (setting [6]) and in data set [1] (setting [7]) were 20 µg/mL (≈ 12.5 µM), less than 10 µg/mL and less than 10 µg/mL, respectively. For the same compound, the degraded at 24 h in data set [2] (setting [8]) came to 0%; in data set [2] (setting [9]), 0.5%; in data set [2] (setting [10]) it was 3.9%. The IC50 in data set [3] worked out at 1.73 nM. Moreover, in data set [4], the amount remaining at 1 h, 1 µM was 6%.
Take `Cc1cccc2c(C[C@@H]3NC(=O)CCCCCCCCCCC(=O)NCCCC[C@@H](C(=O)N[C@@H](CC(N)=O)C(=O)N[C@@H](Cc4cccnc4)C(=O)N(C)CC(N)=O)NC(=O)C(C)(C)NC(=O)[C@H](Cc4ccc5ccccc5c4)NC(=O)[C@H](Cc4ccc(OCCN(C)C)cc4)NC(=O)C4(CCOCC4)NC(=O)[C@H](CCC(N)=O)NC3=O)c[nH]c12` [compound 10] ([Trp(7-Me)]Q[Thp]Y(Me2NCH2CH2)[2Nal][Aib]KN[3Pal][Sar]-NH2; linker N-7 via C12 diacid): the solubility at 2 h is not below 890 µg/mL in data set [1] (setting [5]), 240 µg/mL (≈ 146 µM) in data set [1] (setting [6]) and 70 µg/mL (≈ 42.6 µM) in data set [1] (setting [7]). Moreover, the figures for the degraded at 24 h in data set [2] (setting [8]), in data set [2] (setting [9]) and in data set [2] (setting [10]) were 0%, 0% and 6.1%, respectively. Also, in data set [3], the IC50 is 0.35 nM. Besides, the fraction remaining at 1 h, 1 µM in data set [4] was 88%.
For `Cc1cccc2c(C[C@@H]3NC(=O)CCCCCCCNC(=O)CC[C@@H](C(=O)N[C@@H](CC(N)=O)C(=O)N[C@@H](Cc4cccnc4)C(=O)N(C)CC(N)=O)NC(=O)C(C)(C)NC(=O)[C@H](Cc4ccc5ccccc5c4)NC(=O)[C@H](Cc4ccc(OCCN(C)C)cc4)NC(=O)C4(CCOCC4)NC(=O)[C@H](CC(C)C)NC3=O)c[nH]c12` [compound 9] ([Aoc][Trp(7-Me)]L[Thp]Y(Me2NCH2CH2)[2Nal][Aib]EN[3Pal][Sar]-NH2; lactam N-8), the solubility at 2 h in data set [1] (setting [5]) was not below 1160 µg/mL; in data set [1] (setting [6]), 260 µg/mL (≈ 167 µM); in data set [1] (setting [7]), 80 µg/mL (≈ 51.3 µM). Further, the degraded at 24 h was determined as 0% in data set [2] (setting [8]), 0% in data set [2] (setting [9]) and 5.6% in data set [2] (setting [10]). Also, in data set [3], the IC50 was 10.8 nM. In data set [4], the amount remaining at 1 h, 1 µM was 59%.
